PMC8311653, “Design, Synthesis, In Vitro and In Vivo Characterization of Selective NKCC1 Inhibitors for the Treatment of Core Symptoms in Down Syndrome” (Journal of Medicinal Chemistry, 2021)
In brackets after ≈: the same amount, converted by molar mass.

Experiments:
NKCC1 = target: T1, NKCC1 (Homo sapiens, UniProt P55011); assay: Cl- influx assay in NKCC1-transfected HEK293 cells; format: cell-based; details: for Inhibition 10 μM Cl- influx (%) / Inhibition 100 μM Cl- influx (%): NKCC1-transfected HEK293 cells; for inhibition at 100 µM: HEK293, read-out: Inhibition 100 μM Cl- influx (%); for inhibition at 10 µM: HEK293, read-out: Inhibition 10 μM Cl- influx (%)
T1 construct: host or cells: HEK293
T1 sequence (P55011 1-1212): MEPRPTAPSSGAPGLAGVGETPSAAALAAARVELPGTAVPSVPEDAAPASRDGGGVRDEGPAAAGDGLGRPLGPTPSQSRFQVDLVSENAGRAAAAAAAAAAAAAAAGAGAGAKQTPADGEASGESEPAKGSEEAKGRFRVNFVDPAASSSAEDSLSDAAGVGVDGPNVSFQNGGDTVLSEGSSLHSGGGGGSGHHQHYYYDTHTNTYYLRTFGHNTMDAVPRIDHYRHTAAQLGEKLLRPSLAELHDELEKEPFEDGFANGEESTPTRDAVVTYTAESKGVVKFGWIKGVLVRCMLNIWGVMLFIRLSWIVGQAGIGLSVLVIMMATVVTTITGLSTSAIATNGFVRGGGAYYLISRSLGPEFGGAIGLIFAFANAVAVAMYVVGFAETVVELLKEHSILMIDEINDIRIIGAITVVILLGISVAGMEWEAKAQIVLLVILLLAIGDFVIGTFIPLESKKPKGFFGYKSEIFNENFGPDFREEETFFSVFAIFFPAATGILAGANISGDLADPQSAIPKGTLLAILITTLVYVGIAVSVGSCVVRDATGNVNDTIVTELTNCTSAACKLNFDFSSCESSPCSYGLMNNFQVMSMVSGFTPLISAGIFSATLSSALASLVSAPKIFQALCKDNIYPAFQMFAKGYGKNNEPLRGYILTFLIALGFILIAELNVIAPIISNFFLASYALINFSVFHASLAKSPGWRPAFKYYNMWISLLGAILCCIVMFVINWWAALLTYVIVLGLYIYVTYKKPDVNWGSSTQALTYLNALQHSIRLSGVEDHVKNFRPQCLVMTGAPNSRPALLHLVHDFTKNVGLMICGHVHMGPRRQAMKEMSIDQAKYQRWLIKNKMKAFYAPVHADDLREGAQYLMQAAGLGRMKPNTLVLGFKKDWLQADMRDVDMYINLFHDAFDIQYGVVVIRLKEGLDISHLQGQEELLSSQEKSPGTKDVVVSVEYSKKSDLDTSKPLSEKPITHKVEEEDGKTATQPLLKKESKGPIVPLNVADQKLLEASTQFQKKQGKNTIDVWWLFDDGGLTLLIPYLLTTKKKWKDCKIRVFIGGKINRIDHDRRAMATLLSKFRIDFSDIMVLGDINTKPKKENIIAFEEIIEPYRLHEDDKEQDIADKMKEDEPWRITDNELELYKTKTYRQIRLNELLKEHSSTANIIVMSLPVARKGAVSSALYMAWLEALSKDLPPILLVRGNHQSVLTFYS
Method: HEK293 cells were cultured in Dulbecco’s modified Eagle’s medium (DMEM) supplemented with 10% fetal bovine serum, 1% L-glutamine, 100 U/mL penicillin, and 100 μg/mL streptomycin and maintained at 37 °C in a 5% CO2 humidified atmosphere. To assess NKCC1 and NKCC2 activity (Cl^– influx assay), 3 million HEK cells were plated in a 10 cm cell-culture dish and transfected with a transfection mixture comprising 5 mL of DMEM, 4 mL of Opti-MEM, 8 μg of DNA plasmid coding for NKCC1 (PRK-NKCC1 obtained from Medical Research Council and the University of Dundee), NKCC2 (OriGene plasmid #RC216145) subcloned in PRK5 plasmid, or mock control (empty vector), together with 8 μg of a plasmid coding for the Cl^–-sensitive variant of the membrane-targeted fluorescent protein YFP, mbYFPQS (Addgene plasmid #80742),[53] and 32 μL of Lipofectamin 2000. To assess KCC2 activity (Tl influx assay), cells were transfected with 8 μg of KCC2[54] subcloned in the PRK5 plasmid or mock control (empty vector) and 16 μL of Lipofectamin 2000. After 4 h, the cells were collected and plated in 96-well black-walled, clear-bottomed plates at a density of 2.5 × 10^4. After 48 h, cells were used for the Cl^– or Tl influx assays. All reagents were purchased from Life Technologies, unless otherwise specified.
Transfected cells were treated with 10 μM or 100 μM bumetanide (as positive controls), DMSO (as the negative control), or with each of our compounds in 100 μL/well of a Cl^–-free hypotonic solution (67.5 mM Na^+ gluconate, 2.5 mM K^+ gluconate, 15 mM HEPES pH 7.4, 50 mM glucose, 1 mM Na2HPO4, 1 mM NaH2PO4, 1 mM MgSO4, and 1 mM CaSO4). After 30 min of incubation, plates were loaded into a Victor 3V (PerkinElmer) multiplate reader equipped with an automatic liquid injector system, and fluorescence of Cl^–-sensitive mbYFPQS was recorded with excitation at 485 nm and emission at 535 nm. For each well, fluorescence was first recorded for 20 s of the baseline and for 60 s after delivery of a NaCl concentrated solution (74 mM final concentration in the assay well). Fluorescence of Cl^–-sensitive mbYFPQS is inversely correlated to the intracellular Cl^– concentration;[53] therefore, chloride influx into the cells determined a decrease in mbYFPQS fluorescence. To represent the fluorescent traces in time, we normalized the fluorescence value for each time point to the average of the fluorescence value of the first 20 s of the baseline (ΔF/F0). To quantify the average effects as represented by the bar plots, we expressed the decrease in fluorescence upon NaCl application as the average of the last 10 s of ΔF/F0 normalized traces. Moreover, for each experiment, to account for the contribution of Cl^– changes that were dependent on transporters/exchangers other than NKCC1 or NKCC2, we subtracted the value of the last 10 s of ΔF/F0 normalized traces obtained from mock-transfected cells (either control or treated) from the respective ΔF/F0 value obtained from the cells transfected with NKCC1 or NKCC2. We then presented in the figures all the data as a percentage of the fluorescence decrease versus the value of the control DMSO.

[1] = In vitro metabolic stability in mouse liver microsomes; details: tissue homogenate, pH 7.4
Method: 1. Aqueous kinetic solubility. […]
3. In vitro mouse microsomial stability. […]
microsomes (Sekisui Xenotech, LCC), 0.1M Tris-HCl buffer (pH 7.4), and 10% DMSO. The final […]
After pre-incubation, the cofactors (NADPH, G6P, G6PDH, MgCl2 pre-dissolved in 0.1M Tris-HCl) were added to the incubation mixture and the incubation was continued at 37 °C for 1h. At each time point (0, 5, 15, 30, 60 min), 30µL of incubation mixture was diluted with 200 µL cold acetonitile spiked with 200 nM of warfarin as internal standard, followed by centrifugation at 3500 g for 30 min. The supernatant was further diluted with H2O (1:1) for analysis.
An aliquot of 200 µl of the supernatant was removed, and the concentration of the test compound was […]
quantified by LC-MS/MS. The percentage of the test compound remaining at each time point relative […]
to t=0 was calculated. The half-lives (t½) were determined by a one-phase decay equation using a […]
non-linear regression of compound concentration vs time.

[2] = Aqueous kinetic solubility in PBS pH 7.4; format: physicochemical; details: phosphate buffered saline (PBS); aqueous kinetic solubility from 10 mM DMSO solution in PBS pH 7.4; target concentration 250 μM (final DMSO 2.5%)
Method: 1. Aqueous kinetic solubility.
30 µL aliquots of 10 mM DMSO stock solution of the test compound were incubated in Phosphate
Buffered Saline (PBS) at pH 7.4 at 25°C for 24h. After centrifugation the dissolved compound in the
supernatant was quantified by LC-MS/MS.
Aqueous kinetic solubility was determined by UV quantification at
215 nm. […]

For `CCCCCCCCNc1ccc(C(=O)O)cc1S(N)(=O)=O` [Compound 17, 4-(Octylamino)-3-sulfamoyl-benzoic Acid], the “Inhibition 10 μM Cl- influx (%)” value (NKCC1) was “Inactive”, the inhibition at 100 µM (NKCC1) was 24 ± 8.5% and the half-life at 5 μM [1] was 18 min. For the same compound, the solubility at 24 h [2] was over 250 µM.
In the case of `CCCCCCNc1ccc(C(=O)O)cc1S(=O)(=O)NC` [Compound 20, 4-(Hexylamino)-3-(methylsulfamoyl)benzoic Acid], the “Inhibition 10 μM Cl- influx (%)” value (NKCC1) is reported as “Inactive”, the “Inhibition 100 μM Cl- influx (%)” value (NKCC1) is reported as “Inactive” and the half-life at 5 μM [1] is reported as 29 min. The solubility at 24 h [2] was 247 µM (≈ 77.7 µg/mL).
In the case of `CCCCCCCCNc1ccc(C(=O)O)cc1S(=O)(=O)NC` [Compound 21, 3-(-N-Methylsulfamoyl)-4-(octylamino)benzoic Acid], the inhibition at 10 µM (NKCC1) is reported as 16.2 ± 4.8%, the inhibition at 100 µM (NKCC1) is reported as 20.1 ± 14.7% and the half-life at 5 μM [1] is reported as 12 min. It also gave a solubility at 24 h [2] of 53 µM (≈ 18.2 µg/mL).
With `CCCCCCNc1ccc(C(=O)O)cc1S(=O)(=O)N(C)C` [Compound 24, 3-(-N,N-Dimethylsulfamoyl)-4-(hexylamino)benzoic Acid] the “Inhibition 10 μM Cl- influx (%)” value (NKCC1) was “Inactive”, the inhibition at 100 µM (NKCC1) was 19.8 ± 5.2% and the half-life at 5 μM [1] was 17 min. It also gave a solubility at 24 h [2] of 243 µM (≈ 79.8 µg/mL).
For `CCCCCCCCNc1ccc(C(=O)O)cc1S(=O)(=O)N(C)C` [Compound 25, 3-(-N,N-Dimethylsulfamoyl)-4-(octylamino)benzoic Acid], the “Inhibition 10 μM Cl- influx (%)” value (NKCC1) was “Inactive”, the inhibition at 100 µM (NKCC1) was 70.6 ± 9.2% and the half-life at 5 μM [1] was 13 min. It also gave a solubility at 24 h [2] of 52 µM (≈ 18.5 µg/mL).
For `CN(C)S(=O)(=O)c1cc(C(=O)O)ccc1NCCC(C)(C)C` [Compound 26, 4-(-N-3,3-Dimethylbutylamino)-3-(dimethylsulfamoyl)benzoic Acid], the “Inhibition 10 μM Cl- influx (%)” value (NKCC1) was “Inactive”, the “Inhibition 100 μM Cl- influx (%)” value (NKCC1) was “Inactive” and the half-life at 5 μM [1] was over 60 min. For the same compound, the solubility at 24 h [2] was over 250 µM.
With `CN(C)S(=O)(=O)c1cc(C(=O)O)ccc1NCCCC(F)(F)F` [Compound 27, 3-(-N,N-Dimethylsulfamoyl)-4-(4,4,4-trifluorobutylamino)benzoic Acid] the “Inhibition 10 μM Cl- influx (%)” value (NKCC1) was “Inactive”, the inhibition at 100 µM (NKCC1) was 1.9 ± 5% and the half-life at 5 μM [1] was over 60 min. It also gave a solubility at 24 h [2] of 245 µM (≈ 86.8 µg/mL).
For `CN(C)S(=O)(=O)c1cc(C(=O)O)ccc1NCCCCCC(F)(F)F` [Compound 28, 3-(-N,N-Dimethylsulfamoyl)-4-(6,6,6-trifluorohexylamino)benzoic Acid], the “Inhibition 10 μM Cl- influx (%)” value (NKCC1) was “Inactive”, the inhibition at 100 µM (NKCC1) was 12.6 ± 4.1% and the half-life at 5 μM [1] was over 60 min. It also gave a solubility at 24 h [2] of 249 µM (≈ 95.2 µg/mL).
`COCCNc1ccc(C(=O)O)cc1S(=O)(=O)N(C)C` [Compound 29, 3-(-N,N-Dimethylsulfamoyl)-4-(2-methoxyethylamino)benzoic Acid] showed an inhibition at 10 µM (NKCC1) of 1.4 ± 2.7%, an inhibition at 100 µM (NKCC1) of 4.1 ± 5% and a half-life at 5 μM [1] of over 60 min. It also gave a solubility at 24 h [2] of 237 µM (≈ 71.7 µg/mL).
With `COCCCCNc1ccc(C(=O)O)cc1S(=O)(=O)N(C)C` [Compound 30, 3-(-N,N-Dimethylsulfamoyl)-4-(4-methoxybutylamino)benzoic Acid] the “Inhibition 10 μM Cl- influx (%)” value (NKCC1) was “Inactive”, the inhibition at 100 µM (NKCC1) was 5.2 ± 3.7% and the half-life at 5 μM [1] was over 60 min. For the same compound, the solubility at 24 h [2] was 247 µM (≈ 81.6 µg/mL).
